The EC50 is the concentration giving half of the maximal effect.

Each structure is given as a SMILES string.

The target in this experiment is T1, human RXFP1 (Homo sapiens, UniProt Q9HBX9).
T1 construct: expressed in transfected cells
T1 sequence (Q9HBX9 1-757): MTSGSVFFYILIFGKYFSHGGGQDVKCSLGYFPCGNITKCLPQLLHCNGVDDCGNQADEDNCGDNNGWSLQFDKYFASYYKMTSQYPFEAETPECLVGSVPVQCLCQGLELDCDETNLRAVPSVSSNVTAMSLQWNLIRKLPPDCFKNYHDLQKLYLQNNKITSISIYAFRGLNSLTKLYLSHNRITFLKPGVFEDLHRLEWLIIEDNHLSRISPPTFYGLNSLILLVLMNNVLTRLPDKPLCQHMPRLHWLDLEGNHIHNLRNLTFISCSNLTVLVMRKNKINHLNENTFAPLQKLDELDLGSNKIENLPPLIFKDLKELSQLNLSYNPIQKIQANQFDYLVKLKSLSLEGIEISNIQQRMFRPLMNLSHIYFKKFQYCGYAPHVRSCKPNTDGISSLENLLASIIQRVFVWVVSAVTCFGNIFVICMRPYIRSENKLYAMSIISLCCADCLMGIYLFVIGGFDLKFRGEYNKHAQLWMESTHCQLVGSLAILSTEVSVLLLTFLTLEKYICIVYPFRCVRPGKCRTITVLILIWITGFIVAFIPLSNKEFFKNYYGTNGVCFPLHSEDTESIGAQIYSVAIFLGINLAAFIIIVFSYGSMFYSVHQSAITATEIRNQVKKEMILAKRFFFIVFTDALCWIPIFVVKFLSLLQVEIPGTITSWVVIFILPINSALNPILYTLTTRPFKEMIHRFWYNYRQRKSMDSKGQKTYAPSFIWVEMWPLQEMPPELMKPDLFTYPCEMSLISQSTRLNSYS
Put plainly: RXFP1 cAMP assay (hRXFP1 HEK293 cAMP assay, HTRF). In kind it is cell-based. The following applies: HEK293 cells stably expressing human RXFP1, 30 min at room temperature, read-out: cAMP hRXFP1 HEK293 Assay EC50. The method in brief: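 Intracellular cAMP was read by HTRF, with potency fitted to a 4-parameter logistic curve. Compound exposure (0.010 nM–50 μM final, 2% DMSO) lasted 30 min at room temperature. Cells were hRXFP1-HEK293 at 1500 per well in IBMX-containing (0.5 mM) HEPES-buffered HBSS.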
(In general: Changes in cAMP serve as a functional read-out for many G protein-coupled receptors.)
As for `COc1ccc(-c2cncc(C(=O)O)c2)cc1C(=O)N[C@@H]1C2CCC(/C2=C/C(F)(F)F)[C@@H]1C(=O)Nc1ccc(F)c(C(F)(F)F)c1` (some centres unmarked) [compound 288], the EC50 turned out to be 0.127 µM.
Next, `COc1ccc(-c2cc(C(F)(F)F)ccc2F)cc1C(=O)N[C@@H]1C2CCC(/C2=C/C2CC(F)(F)C2)[C@@H]1C(=O)Nc1ccc(F)c(C(F)(F)F)c1` (some centres unmarked) [compound 289]: 0.548 µM; `COc1ccc(Br)cc1C(=O)N[C@@H]1C2CCC(/C2=C/C(F)(F)F)[C@@H]1C(=O)Nc1ccc(F)c(C(F)(F)F)c1` (some centres unmarked) [compound 292]: 1.86 µM.
As for `COc1ccc(-c2ccc(C(=O)O)cc2F)cc1C(=O)N[C@@H]1C2CCC(/C2=C/C(F)(F)F)[C@@H]1C(=O)Nc1ccc(F)c(C(F)(F)F)c1` (some centres unmarked) [compound 293], the EC50 stood at 0.032 µM.
The result for `COc1ccc(-c2cc(C(=O)OC(C)(C)C)ccc2F)cc1C(=O)N[C@@H]1C2CCC(/C2=C/C(F)(F)F)[C@@H]1C(=O)Nc1ccc(F)c(C(F)(F)F)c1` (some centres unmarked) [compound 294] reads 0.047 µM.
The result for `COc1ccc(-c2ccc3[nH]cc(C(=O)O)c3c2)cc1C(=O)N[C@@H]1C2CCC(/C2=C/C(F)(F)F)[C@@H]1C(=O)Nc1ccc(F)c(C(F)(F)F)c1` (some centres unmarked) [compound 295] reads 0.053 µM; that for `COC(=O)c1c[nH]c2cc(-c3ccc(OC)c(C(=O)N[C@@H]4C5CCC(/C5=C/C(F)(F)F)[C@@H]4C(=O)Nc4ccc(F)c(C(F)(F)F)c4)c3)ccc12` (some centres unmarked) [compound 296], 0.205 µM; that for `CCOC(=O)c1cc2cc(-c3ccc(OC)c(C(=O)N[C@@H]4C5CCC(/C5=C/C(F)(F)F)[C@@H]4C(=O)Nc4ccc(F)c(C(F)(F)F)c4)c3)ccc2[nH]1` (some centres unmarked) [compound 297], 0.073 µM.
As to `CCOC(=O)c1c(-c2ccc(F)cc2)[nH]c2ccc(-c3ccc(OC)c(C(=O)N[C@@H]4C5CCC(/C5=C/C(F)(F)F)[C@@H]4C(=O)Nc4ccc(F)c(C(F)(F)F)c4)c3)cc12` (some centres unmarked) [compound 298], the EC50 is 0.07 µM.
Next, `COc1ccc(-c2cc(C(=O)O)ccc2F)cc1C(=O)N[C@@H]1C2CCC(/C2=C/C2CC2)[C@@H]1C(=O)NC1CCc2ccccc2C1` (some centres unmarked) [compound 299]: 0.227 µM; `COc1ccc(-c2cc(C(=O)O)ccc2F)cc1C(=O)N[C@@H]1C2CCC(/C2=C/C2CC2)[C@@H]1C(=O)NC(C)C` (some centres unmarked) [compound 300]: 0.575 µM; `COc1ccc(-c2cc(C(=O)O)ccc2F)cc1C(=O)N[C@@H]1C2CCC(/C2=C/C2CC2)[C@@H]1C(=O)NC1CC2(CCC2)C1` (some centres unmarked) [compound 301]: 0.85 µM.
Regarding `COc1ccc(-c2cc(C(=O)O)ccc2F)cc1C(=O)N[C@@H]1C2CCC(/C2=C/C2CC2)[C@@H]1C(=O)NCCc1cccc(C(F)(F)F)c1` (some centres unmarked) [compound 302], the EC50 turned out to be 0.889 µM.
Next, `COc1ccc(-c2cc(C(=O)O)ccc2F)cc1C(=O)N[C@@H]1C2CCC(/C2=C/C2CC2)[C@@H]1C(=O)NC1CC(F)(F)C1` (some centres unmarked) [compound 304]: 1.71 µM; `COc1ccc(-c2cc(C(=O)O)ccc2F)cc1C(=O)N[C@@H]1C2CCC(/C2=C/C2CC2)[C@@H]1C(=O)Nc1ccc(F)c(F)c1F` (some centres unmarked) [compound 305]: 1.38 µM.
The result for `COc1ccc(-c2cc(C(=O)O)ccc2F)cc1C(=O)N[C@@H]1C2CCC(/C2=C/C2CC2)[C@@H]1C(=O)NCc1ccccc1OC(F)(F)F` (some centres unmarked) [compound 306] reads 0.54 µM; that for `COc1ccc(-c2cc(C(=O)O)ccc2F)cc1C(=O)N[C@@H]1C2CCC(/C2=C/C2CC2)[C@@H]1C(=O)NC(C)c1cc(F)ccc1F` (some centres unmarked) [compound 307], 0.958 µM.
Next, `COc1ccc(-c2cc(C(=O)O)ccc2F)cc1C(=O)N[C@@H]1C2CCC(/C2=C/C2CC2)[C@@H]1C(=O)NC1Cc2ccccc2C1` (some centres unmarked) [compound 308]: 2.39 µM; `COc1ccc(-c2cc(C(=O)O)ccc2F)cc1C(=O)N[C@@H]1C2CCC(/C2=C/C2CC2)[C@@H]1C(=O)NC(C)c1nccs1` (some centres unmarked) [compound 309]: 4.38 µM.
For the compound `COc1ccc(-c2ccc3c(c2)nnn3CC(=O)O)cc1C(=O)N[C@@H]1C2CCC(/C2=C/C(F)(F)F)[C@@H]1C(=O)Nc1ccc(F)c(C(F)(F)F)c1` (some centres unmarked) [compound 312], the EC50 worked out at 0.009 µM.

(Values after patent US20250221966A1, “RXFP1 AGONISTS” (BRISTOL-MYERS SQUIBB COMPANY, priority 2021, published 2025).)
